Where “and” joins values, the source holds several entries; their conditions need not be identical. Identical values can stand only once. Toxic doses and inconclusive results are not listed. The calls were made as follows: active = survival T/C of 150% or more; inactive = T/C below 125% in these data.
Tested on: P388 leukemia ip, CD2F1 mice, survival T/C
Assay: NCI In Vivo Anticancer Drug Screen. Data for tumor model P388 Leukemia (intraperitoneal) in CD2F1 (CDF1) mice
Details: endpoint: median survival time, higher = longer survival
How it was run: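 Mice carrying the transplanted tumor received test compound or vehicle. Survival was recorded in each group, and the value is the treated-group measurement divided by that of the vehicle-treated control group.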

[1] = dose: 12.5 mg/kg/injection, schedule: Q01DX009 (ip), vehicle: saline with Tween-80
[2] = dose: 25.0 mg/kg/injection, schedule: Q01DX009 (ip), vehicle: saline with Tween-80
[3] = dose: 50.0 mg/kg/injection, schedule: Q01DX005 (ip), vehicle: Klucel (hydroxypropylcellulose) (HPC)
[4] = dose: 100.0 mg/kg/injection, schedule: Q01DX005 (ip), vehicle: Klucel (hydroxypropylcellulose) (HPC)
[5] = dose: 200.0 mg/kg/injection, schedule: Q01DX005 (ip), vehicle: Klucel (hydroxypropylcellulose) (HPC)
[6] = dose: 50.0 mg/kg/injection, schedule: Q01DX005 (ip), vehicle: saline with Tween-80
[7] = dose: 100.0 mg/kg/injection, schedule: Q01DX005 (ip), vehicle: saline with Tween-80
[8] = dose: 200.0 mg/kg/injection, schedule: Q01DX005 (ip), vehicle: saline with Tween-80
[9] = dose: 12.5 mg/kg/injection, schedule: Q01DX005 (ip), vehicle: Klucel (hydroxypropylcellulose) (HPC)
[10] = dose: 25.0 mg/kg/injection, schedule: Q01DX005 (ip), vehicle: Klucel (hydroxypropylcellulose) (HPC)

Measured: T/C

CCOc1ccccc1N=Cc1c2ccccc2cc2ccccc12
inactive: [1] 100 % of control | [2] 95 % of control | dose: 50.0 mg/kg/injection, schedule: Q01DX009 (ip), vehicle: saline with Tween-80 98 % of control and 86 % of control | dose: 100.0 mg/kg/injection, schedule: Q01DX009 (ip), vehicle: saline with Tween-80 89 % of control

CC1CCCCC1=C(C#N)C#N (stereo not drawn)
inactive: dose: 12.5 mg/kg/injection, schedule: Q01DX009 (ip), vehicle: other 95 % of control | dose: 25.0 mg/kg/injection, schedule: Q01DX009 (ip), vehicle: other 100 % of control

C=C1C(=O)O[C@@H]2C[C@@H](C)[C@@H]3CC[C@H](O)[C@@]3(COC(C)=O)C[C@@H]12
inactive: dose: 8.13 mg/kg/injection, schedule: Q01DX005 (ip), vehicle: Klucel (hydroxypropylcellulose) (HPC) 97 % of control | dose: 16.25 mg/kg/injection, schedule: Q01DX005 (ip), vehicle: Klucel (hydroxypropylcellulose) (HPC) 99 % of control | dose: 32.5 mg/kg/injection, schedule: Q01DX005 (ip), vehicle: Klucel (hydroxypropylcellulose) (HPC) 100 % of control and 98 % of control | dose: 65.0 mg/kg/injection, schedule: Q01DX005 (ip), vehicle: Klucel (hydroxypropylcellulose) (HPC) 104 % of control and 109 % of control | dose: 130.0 mg/kg/injection, schedule: Q01DX005 (ip), vehicle: Klucel (hydroxypropylcellulose) (HPC) 113 % of control | dose: 260.0 mg/kg/injection, schedule: Q01DX005 (ip), vehicle: Klucel (hydroxypropylcellulose) (HPC) 122 % of control

O=C(Nc1cccc2c(OC(=O)C(Cl)Cl)c(N=Nc3ccc(S(=O)(=O)Nc4nccs4)cc3)cc(N=Nc3ccc(S(=O)(=O)Nc4nccs4)cc3)c12)C(Cl)Cl (tested in a mixture with another compound)
inactive: dose: 3.12 mg/kg/injection, schedule: Q01DX009 (ip), vehicle: saline with Tween-80 107 % of control | dose: 6.25 mg/kg/injection, schedule: Q01DX009 (ip), vehicle: saline with Tween-80 104 % of control | [1] 105 % of control and 110 % of control | [2] 105 % of control [middle of 5 runs] | dose: 200.0 mg/kg/injection, schedule: Q01DX009 (ip), vehicle: saline with Tween-80 108 % of control [middle of 8 runs]

COC(=O)c1cccc2c(N)c(N)cc(C(=O)OC)c12
inactive: dose: 60.0 mg/kg/injection, schedule: Q01DX005 (ip), vehicle: saline with Tween-80 100 % of control | dose: 120.0 mg/kg/injection, schedule: Q01DX005 (ip), vehicle: saline with Tween-80 104 % of control | dose: 240.0 mg/kg/injection, schedule: Q01DX005 (ip), vehicle: saline with Tween-80 106 % of control

O=[N+]([O-])c1ccc(-c2cnc3nc4[nH]c5ccccc5c4nn23)cc1
inactive: dose: 100.0 mg/kg/injection, schedule: Q01DX001 (ip), vehicle: saline with Tween-80 101 % of control | dose: 200.0 mg/kg/injection, schedule: Q01DX001 (ip), vehicle: saline with Tween-80 92 % of control | dose: 400.0 mg/kg/injection, schedule: Q01DX001 (ip), vehicle: saline with Tween-80 87 % of control

CC(=O)OCC(C)(C)COC1OCN(C(C)(C)C)CC1(C)C (stereo not drawn)
inactive: dose: 10.0 mg/kg/injection, schedule: Q01DX009 (ip), vehicle: saline with Tween-80 94 % of control | dose: 20.0 mg/kg/injection, schedule: Q01DX009 (ip), vehicle: saline with Tween-80 104 % of control | dose: 40.0 mg/kg/injection, schedule: Q01DX009 (ip), vehicle: saline with Tween-80 110 % of control

O=C(NC(Cc1ccc(I)cc1)C(=O)O)c1ccc(Cl)cc1 (stereo not drawn)
inactive: [3] 95 % of control | [4] 100 % of control | [5] 108 % of control

S=c1cc(-c2ccccc2)ss1
inactive: dose: 178.0 mg/kg/injection, schedule: Q04DX003 (ip), vehicle: saline with Tween-80 102 % of control | dose: 266.0 mg/kg/injection, schedule: Q04DX003 (ip), vehicle: saline with Tween-80 102 % of control | dose: 400.0 mg/kg/injection, schedule: Q04DX003 (ip), vehicle: saline with Tween-80 101 % of control | dose: 600.0 mg/kg/injection, schedule: Q04DX003 (ip), vehicle: saline with Tween-80 102 % of control

CC(C)CC(C)C1CCC(C)C1CCC(C)OC=O (stereo not drawn)
inactive: [6] 102 % of control | [7] 114 % of control | [8] 98 % of control

O=C1C(Cl)=C(NCCC2CCCN3CCCCC23)C(=O)c2ccccc21 (stereo not drawn)
inactive: [9] 99 % of control and 101 % of control and 93 % of control | [10] 98 % of control and 99 % of control and 97 % of control | [4] 109 % of control and 111 % of control

O=C(CNC(=O)C(Cc1c[nH]c2ccccc12)NC(=O)OCc1ccccc1)NCC(=O)OCc1ccccc1 (stereo not drawn)
inactive: [6] 104 % of control | [7] 100 % of control | [8] 110 % of control

COC(=O)/C=C1\C2OC(C1C(=O)OC)C(O)C2O (stereo not drawn)
inactive: [6] 100 % of control | [7] 97 % of control | [8] 90 % of control

CCOC(=O)C1CC1C1=C(C)c2cc3[n-]c(cc4nc(cc5[n-]c(cc1n2)c(C)c5CCC(=O)OC)C(CCC(=O)OC)=C4C)c(C)c3C1CC1C(=O)OCC.[Cl-].[Fe+3] (stereo not drawn)
inactive: [3] 102 % of control | [4] 86 % of control | [5] 100 % of control

CC1=C[C@H]2[C@@]3(O)[C@H](C)[C@@H](OC(=O)/C=C\c4ccccc4)[C@]4(OC(=O)/C=C\c5ccccc5)[C@H]([C@@H]3C=C(COC(=O)/C=C\c3ccccc3)C[C@]2(O)C1=O)C4(C)C
inactive: dose: 0.18 mg/kg/injection, schedule: Q01DX005 (ip), vehicle: saline + alcohol 92 % of control | dose: 0.35 mg/kg/injection, schedule: Q01DX005 (ip), vehicle: saline + alcohol 95 % of control | dose: 0.7 mg/kg/injection, schedule: Q01DX005 (ip), vehicle: saline + alcohol 95 % of control | dose: 1.4 mg/kg/injection, schedule: Q01DX005 (ip), vehicle: saline + alcohol 95 % of control | dose: 2.8 mg/kg/injection, schedule: Q01DX005 (ip), vehicle: saline + alcohol 102 % of control

[Ni].c1c[nH]cn1.c1c[nH]cn1.c1c[nH]cn1.c1c[nH]cn1.c1c[nH]cn1.c1c[nH]cn1
inactive: dose: 6.25 mg/kg/injection, schedule: Q01DX005 (ip), vehicle: saline 92 % of control | dose: 12.5 mg/kg/injection, schedule: Q01DX005 (ip), vehicle: saline 86 % of control | dose: 25.0 mg/kg/injection, schedule: Q01DX005 (ip), vehicle: saline 87 % of control | dose: 50.0 mg/kg/injection, schedule: Q01DX005 (ip), vehicle: saline 100 % of control

C=CCn1nnc(N)n1
inactive: dose: 100.0 mg/kg/injection, schedule: Q04DX003 (ip), vehicle: Klucel (hydroxypropylcellulose) (HPC) 111 % of control | dose: 200.0 mg/kg/injection, schedule: Q04DX003 (ip), vehicle: Klucel (hydroxypropylcellulose) (HPC) 109 % of control | dose: 400.0 mg/kg/injection, schedule: Q04DX003 (ip), vehicle: Klucel (hydroxypropylcellulose) (HPC) 105 % of control

[N-]=[N+]=Nc1ccccc1C(=O)NCCCNC(=O)c1ccccc1N=[N+]=[N-]
inactive: dose: 12.5 mg/kg/injection, schedule: Q01DX005 (ip), vehicle: saline with Tween-80 91 % of control | dose: 25.0 mg/kg/injection, schedule: Q01DX005 (ip), vehicle: saline with Tween-80 87 % of control | [6] 86 % of control

Nc1nnc(SCCCCCCCCCCCCSc2nnc(N)s2)s1
inactive: [9] 91 % of control | [10] 90 % of control | [3] 89 % of control | [5] 86 % of control

COc1cc2c(c(OC)c1OC)-c1cc3c(cc1CC(CO)C(CO)C2)OCO3 (stereo not drawn)
inactive: dose: 0.5 mg/kg/injection, schedule: Q04DX002 (ip), vehicle: saline with Tween-80 101 % of control | dose: 1.0 mg/kg/injection, schedule: Q04DX002 (ip), vehicle: saline with Tween-80 106 % of control | dose: 2.0 mg/kg/injection, schedule: Q04DX002 (ip), vehicle: saline with Tween-80 103 % of control

N=c1ccc(=Nc2ccc(N)c3c(O)c4ccccc4c(O)c23)c2c(=O)c3ccccc3c(=O)c1=2
inactive: [6] 103 % of control | [7] 94 % of control | [8] 92 % of control
